Patent US20250152585A1, “PHARMACEUTICAL COMPOUND” (Duke Street Bio Limited, priority 2022, published 2025)
Where two headings read alike, the source gives them in different places.

Tests used:
PARP1 [1] = conditions: Johannes et al. J. Med. Chem. 2021; cited from earlier work
[2] = rodent models; compared with first-generation PARP inhibitors; Illuzzi et al. 2022; cited from earlier work
[3] = target: T1, N-terminally FLAG-tagged PARP2 (amino acids 1-583) (Homo sapiens, UniProt Q9UGN5); experiment: PARP2 probe displacement HTRF assay; format: binding; conditions: binned Kd
T1 construct: N-terminally FLAG-tagged PARP2 (amino acids 1-583)
Method: Data analysis was performed identical as for PARP1.

PARP1 [4] = target: T2, PARP1 (Homo sapiens, UniProt P09874); experiment: NanoBRET cellular target occupancy assay, PARP1; format: cell-based; conditions: for Kd: HEK293 cells transiently transfected with PARP1-NanoLuc fusion, tracer 11 nM, 2 hours at 37° C., Kd by Cheng-Prussoff; for Selectivity: NanoBRET, PARP1 over PARP2, Kd (PARP2)/Kd (PARP1)
T2 construct: host or cells: HEK293

PARP2 = target: T3, PARP2 (Homo sapiens, UniProt Q9UGN5); experiment: NanoBRET cellular target occupancy assay, PARP2; format: cell-based; conditions: HEK293 cells transiently transfected with PARP2-NanoLuc fusion; tracer 2 nM; 2 hours at 37° C.; Kd by Cheng-Prussoff
T3 construct: host or cells: HEK293
Description: NanoBRET Cellular Target Occupancy Assay

[5] = target: T4, full length N-terminally FLAG-tagged PARP1 (Homo sapiens, UniProt P09874); experiment: PARP1 probe displacement HTRF assay; conditions: for Kd: binned Kd; for Selectivity: PARP1 over PARP2, ratio Kd (PARP2)/Kd (PARP1)
[6] = target: T4, full length N-terminally FLAG-tagged PARP1; experiment: PARP1 biochemical DELFIA assay (auto-PARylation); parameters: recombinant full length human N-terminally FLAG-tagged PARP1
[7] = PARP1 HTRF, probe displacement HTRF
[8] = binned IC50, biochemical auto-PARylation assay
[9] = read-out: PARP1 HTRF, PARP1 probe displacement HTRF
[10] = binned IC50, PARP1 biochemical DELFIA assay
[11] = read-out: PARP1 HTRF, probe displacement HTRF

T4 sequence (P09874 whole entry): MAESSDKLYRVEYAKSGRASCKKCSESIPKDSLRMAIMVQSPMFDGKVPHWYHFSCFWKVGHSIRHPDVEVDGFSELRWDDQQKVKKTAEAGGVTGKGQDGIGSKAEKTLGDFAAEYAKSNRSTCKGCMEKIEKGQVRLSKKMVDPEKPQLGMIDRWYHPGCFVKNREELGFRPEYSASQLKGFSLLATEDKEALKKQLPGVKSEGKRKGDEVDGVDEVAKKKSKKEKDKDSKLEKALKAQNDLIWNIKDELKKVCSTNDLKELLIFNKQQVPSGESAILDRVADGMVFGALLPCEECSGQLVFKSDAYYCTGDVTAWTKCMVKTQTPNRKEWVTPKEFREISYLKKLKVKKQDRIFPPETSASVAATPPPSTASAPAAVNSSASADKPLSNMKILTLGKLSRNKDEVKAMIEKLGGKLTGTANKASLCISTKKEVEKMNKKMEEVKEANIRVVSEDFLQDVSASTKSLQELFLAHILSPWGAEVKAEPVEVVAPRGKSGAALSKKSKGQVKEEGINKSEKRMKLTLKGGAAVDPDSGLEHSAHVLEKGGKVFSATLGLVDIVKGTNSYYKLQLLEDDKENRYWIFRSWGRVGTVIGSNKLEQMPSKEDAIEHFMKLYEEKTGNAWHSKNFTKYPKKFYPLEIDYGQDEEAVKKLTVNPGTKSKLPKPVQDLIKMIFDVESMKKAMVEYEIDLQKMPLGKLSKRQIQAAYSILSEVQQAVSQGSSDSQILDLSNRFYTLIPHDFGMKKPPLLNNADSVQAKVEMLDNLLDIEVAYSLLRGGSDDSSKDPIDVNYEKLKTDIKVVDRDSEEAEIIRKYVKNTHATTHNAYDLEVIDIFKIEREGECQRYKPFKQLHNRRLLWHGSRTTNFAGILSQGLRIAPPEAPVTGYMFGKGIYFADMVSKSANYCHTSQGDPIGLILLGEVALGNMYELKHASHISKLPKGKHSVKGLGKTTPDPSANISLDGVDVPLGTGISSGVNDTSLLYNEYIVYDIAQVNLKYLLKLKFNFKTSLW
T2 sequence (P09874 whole entry, the tested form may be a part): as the sequence (P09874 whole entry) above
T3 sequence (Q9UGN5 whole entry, the tested form may be a part): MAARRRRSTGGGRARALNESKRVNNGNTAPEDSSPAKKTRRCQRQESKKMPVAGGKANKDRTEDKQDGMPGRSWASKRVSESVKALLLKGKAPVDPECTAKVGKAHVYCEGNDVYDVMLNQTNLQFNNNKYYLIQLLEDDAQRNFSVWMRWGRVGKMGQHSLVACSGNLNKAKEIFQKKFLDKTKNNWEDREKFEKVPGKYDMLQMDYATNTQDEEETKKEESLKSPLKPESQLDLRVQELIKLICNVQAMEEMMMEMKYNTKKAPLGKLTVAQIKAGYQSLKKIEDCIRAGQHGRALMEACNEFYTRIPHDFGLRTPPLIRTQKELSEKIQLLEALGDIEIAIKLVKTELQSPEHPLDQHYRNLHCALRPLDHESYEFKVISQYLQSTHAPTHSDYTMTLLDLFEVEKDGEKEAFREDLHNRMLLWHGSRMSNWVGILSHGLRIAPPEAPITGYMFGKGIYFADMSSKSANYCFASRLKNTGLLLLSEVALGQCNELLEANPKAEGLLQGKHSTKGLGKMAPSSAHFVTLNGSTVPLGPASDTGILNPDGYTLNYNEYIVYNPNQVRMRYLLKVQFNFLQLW
T1 sequence (Q9UGN5 whole entry, the tested form may be a part): as above

| Kd ([3]; probe displacement HTRF) [nM] | Kd (PARP1 [4]) [nM] | Kd (PARP2) [nM] | Kd [5, 7] [nM] | IC50 [6, 8] [nM] | Kd ([3]; PARP2 probe displacement HTRF) [nM] | Kd [5, 9] [nM] | IC50 [6, 10] [nM] | Kd [5, 11] [nM] | SMILES | selectivity over PARP2 (PARP1 [1]) [fold] | haematotoxicity [2] | Selectivity (PARP1 [4]) | Selectivity ([5]; probe displacement HTRF) |
| --- | --- | --- | --- | --- | --- | --- | --- | --- | --- | --- | --- | --- | --- |
| 10 to 100 | 10 to 100 | 100 to 1000 | < 10 | < 10 |  |  |  |  | CNC(=O)c1ccc(N2CCC(N3CC4(c5nc6c(c(=O)[nH]5)CCCN6C)CC3C4)CC2)cn1 [Compound 330] |  |  | + (+ indicates a value of 10 to less than 50) | + (+ indicates a value of 10 to less than 50) |
| 100 to 1000 | < 10 | 1000 to 10000 | < 10 | < 10 |  |  |  |  | CNC(=O)c1ccc(N2CCC(N3CCC(c4cc5c(c(=O)[nH]4)CCCC5)C3)CC2)c(F)n1 (single isomer, unassigned) [Compound 337a, 6-fluoro-N-methyl-5-(4-(3-(1-oxo-1,2,5,6,7,8-hexahydroisoquinolin-3-yl)pyrrolidin-1-yl)piperidin-1-yl)picolinamide] |  |  | +++ (+++ indicate a value of at least 100) | +++ (+++ indicate a value of at least 100) |
| 1000 to 10000 | < 10 | 1000 to 10000 |  | < 10 |  |  |  | < 10 | CNC(=O)c1ccc(N2CCC(N3CCC(c4ccc(CC5CC5)c(=O)[nH]4)C3)CC2)c(F)n1 (single isomer, unassigned) [Compound 313b] |  |  | +++ (+++ indicate a value of at least 100) | +++ (+++ indicate a value of at least 100) |
| 100 to 1000 | < 10 | 100 to 1000 |  | < 10 |  |  |  | < 10 | CCc1ccc(C2CCN(C3CCN(c4ccc(C(=O)NCCF)nc4F)CC3)C2)[nH]c1=O (single isomer, unassigned) [Compound 322b] |  |  | +++ (+++ indicate a value of at least 100) | +++ (+++ indicate a value of at least 100) |
| > 10000 | 10 to 100 | > 10000 | < 10 | < 10 |  |  |  |  | CNC(=O)c1ccc(N2CCC(N3CC4(c5nc6c(c(=O)[nH]5)CCC6)CC3C4)CC2)c(F)n1 [Compound 302] |  |  | +++ (+++ indicate a value of at least 100) | +++ (+++ indicate a value of at least 100) |
| 100 to 1000 | < 10 | 100 to 1000 |  | < 10 |  |  |  | < 10 | CNC(=O)c1ccc(N2CCC(N3CCC(c4[nH]c(=O)c5ccccc5c4F)C3)CC2)cn1 (racemic) [Compound 258rac] |  |  | +++ (+++ indicate a value of at least 100) | +++ (+++ indicate a value of at least 100) |

The next lines start with the compound.

| SMILES | Kd ([3]; probe displacement HTRF) [nM] | Kd (PARP1 [4]) [nM] | Kd (PARP2) [nM] | Kd [5, 7] [nM] | IC50 [6, 8] [nM] | Kd ([3]; PARP2 probe displacement HTRF) [nM] | Kd [5, 9] [nM] | IC50 [6, 10] [nM] | Kd [5, 11] [nM] | selectivity over PARP2 (PARP1 [1]) [fold] | haematotoxicity [2] | Selectivity (PARP1 [4]) | Selectivity ([5]; probe displacement HTRF) |
| --- | --- | --- | --- | --- | --- | --- | --- | --- | --- | --- | --- | --- | --- |
| CCc1cc2ncc(CN3CCN(c4ccc(C(=O)NC)nc4)CC3)cc2[nH]c1=O [AZD5305] |  |  |  |  |  |  |  |  |  | 500 | significantly less haematotoxicity |  |  |
| CNC(=O)c1ccc(N2CCC(N3CCC(c4nc5ccccc5c(=O)[nH]4)C3)CC2)c(F)n1 (racemic) [Compound 157rac] |  | < 10 | > 10000 |  |  | 1000 to 10000 | < 10 | < 10 |  |  |  | +++ (+++ indicate a value of at least 100) | +++ (+++ indicate a value of at least 100) |
| CNC(=O)c1ccc(N2CCC(N3CCC(c4cc5ccc(F)cc5c(=O)[nH]4)C3)CC2)c(F)n1 (single isomer, unassigned) [Compound 174b] |  | < 10 | 100 to 1000 |  |  | 10 to 100 | < 10 | < 10 |  |  |  | +++ (+++ indicate a value of at least 100) | +++ (+++ indicate a value of at least 100) |
| CNC(=O)c1ccc(N2CCC(N3CCC(c4cc5ccc(F)cc5c(=O)[nH]4)C3)CC2)cn1 (single isomer, unassigned) [Compound 154b, 5-(4-(3-(7-fluoro-1-oxo-1,2-dihydroisoquinolin-3-yl)pyrrolidin-1-yl)piperidin-1-yl)-N-methylpicolinamide] |  | < 10 | 100 to 1000 |  |  | 10 to 100 | < 10 | < 10 |  |  |  | +++ (+++ indicate a value of at least 100) | + (+ indicates a value of 10 to less than 50) |
| CNC(=O)c1ccc(N2CCC(N3CC4(c5nc6cccc(F)c6c(=O)[nH]5)CC3C4)CC2)c(F)n1 [Compound 228] | 1000 to 10000 | < 10 | > 10000 | < 10 | < 10 |  |  |  |  |  |  | +++ (+++ indicate a value of at least 100) | +++ (+++ indicate a value of at least 100) |
| CNC(=O)c1ccc(N2CCC(N3CCC(c4cc5ccc(F)cc5c(=O)[nH]4)C3)CC2)c(C)n1 (single isomer, unassigned) [Compound 196a] |  | < 10 | 100 to 1000 |  |  | 100 to 1000 | < 10 | < 10 |  |  |  | +++ (+++ indicate a value of at least 100) | +++ (+++ indicate a value of at least 100) |
| CCc1ccc(C2CCN(C3CCN(c4ccc(C(=O)NC)nc4Cl)CC3)C2)[nH]c1=O (racemic) [Compound 144rac] |  | < 10 | > 10000 |  |  | 1000 to 10000 | < 10 | < 10 |  |  |  | +++ (+++ indicate a value of at least 100) | +++ (+++ indicate a value of at least 100) |
| CNC(=O)c1ccc(N2CCC(N3CCC(c4cc5cccc(F)c5c(=O)[nH]4)C3)CC2)c(Cl)n1 (single isomer, unassigned) [Compound 183b] |  | < 10 | 1000 to 10000 |  |  | 100 to 1000 | < 10 | < 10 |  |  |  | +++ (+++ indicate a value of at least 100) | +++ (+++ indicate a value of at least 100) |
| CNC(=O)c1ccc(N2CCC(N3CCC(c4cc5ccc(F)cc5c(=O)[nH]4)C3)CC2)c(Cl)n1 (single isomer, unassigned) [Compound 223b] | 100 to 1000 | < 10 | 100 to 1000 |  | < 10 |  |  |  | < 10 |  |  | +++ (+++ indicate a value of at least 100) | +++ (+++ indicate a value of at least 100) |
| CCc1cc(Cl)c(C2CCN(C3CCN(c4ccc(C(=O)NC)nc4)CC3)C2)[nH]c1=O (racemic) [Compound 255rac] | 100 to 1000 | < 10 | 1000 to 10000 |  | < 10 |  |  |  | < 10 |  |  | +++ (+++ indicate a value of at least 100) | ++ (++ indicates a value of 50 to less than 100) |
